Test results reported in patent US20230034978A1, “PROCESS FOR MEASURING EFFICACY OF PAIN THERAPY” (priority 2021, published 2023).

Legend:
[1] = tested on: CMi fibers (axon flare) in rhesus monkeys; experiment: DLss induced axon flare before and after intradermal lidocaine injection; assay type: in vivo; conditions: intradermal 2.0% lidocaine injection; four rhesus monkeys; saline subdermal injection as control
Excerpt: Lidocaine is a wide spectrum sodium channel blocker that is used clinically as a dermal patch or intradermal injection 97-99 for treatment of peripheral neuropathic pain 3, 99. […] C and Aδ fibers are differentially affected by lidocaine treatment 99-101, and suppression of repetitive CMi activation that mimics spontaneous activity is a potent consequence of lidocaine treatment 100. Flare response in rhesus monkeys, a primate animal model for human neuropathic pain generation and nociceptor dynamics was similar to that observed in healthy subjects (FIG. 2). A total of four monkeys were tested. DLss induced flare was evaluated before and after intradermal 2.0% lidocaine injection and saline subdermal injection was used as a control. […]
• Diode laser for selective stimulation (DLss) testing of C:Aδ ratio. […] Skin temperature on the dorsal foot will be monitored and maintained at 32-33° C. using periodic heating pad warming. • Laser detection and pain thresholds (separately for Aδ and C fiber stimulation) were quantified using the “method of levels” on a 6×6 cm stimulus grid drawn on the foot dorsum, shifting location and using a series of ascending stimulations starting from sub-detection intensity, increasing by fixed increments with the highest stimulation determined by participant reporting a painful sensation with intensity between 30 and 40 on the 0-100 VAS. […]

[2] = tested on: participants with peripheral ongoing neuropathic pain (p-ONP) / peripheral neuropathy; experiment: Lidocaine patch cross-over trial (Example 2A): pain VAS and DLss C:Aδ ratio; assay type: in vivo, human; conditions: lidocaine patch (5%) or placebo patch, 7 day treatment, p<0.01
Experimental: 70 p-ONP participants to with mean pain VAS >40 mm who undergo baseline DLss, and pain measures. Response to VAS was compared to change in C:Aδ ratio following treatment with peripherally active lidocaine patch (5%), or placebo patch using a 7 day treatment cross-over design with 14 day washout between treatment arms.
• Diode laser for selective stimulation (DLss) testing of C:Aδ ratio. Detection and pain thresholds for fiber-selective laser stimulation was performed with Lass-10M, as previously described (patents U.S. Pat. No. 7,402,167B2 and U.S. Pat. No. 8,029,553B2). The foot dorsum was shaved to limit light absorption and overheating. Skin temperature on the dorsal foot will be monitored and maintained at 32-33° C. using periodic heating pad warming. • Laser detection and pain thresholds (separately for Aδ and C fiber stimulation) were quantified using the “method of levels” on a 6×6 cm stimulus grid drawn on the foot dorsum, shifting location and using a series of ascending stimulations starting from sub-detection intensity, increasing by fixed increments with the highest stimulation determined by participant reporting a painful sensation with intensity between 30 and 40 on the 0-100 VAS. […] Blood perfusion was recorded by Speckle Imaging (PeriCam PSI System, Perimed, Sweden), following DLss stimulus using the C fiber protocol above. […]

peripheral ONP = conditions: lidocaine injection; reference 12; cited from earlier work

Question: Which “axon flare area after injection compared to saline” value [1] does the source give for CCN(CC)CC(=O)Nc1c(C)cccc1C [lidocaine] here?
Answer: markedly reduced

Question: And the “Change in C:Aδ ratio, lidocaine versus placebo treatment groups” value [2]?
Answer: distinguish lidocaine from placebo treatment groups

Question: What about the “block of peripheral ONP” value (peripheral ONP) of the same compound?
Answer: completely block
